From patent US9650339B2, “Inhibitors of histone demethylases” (Gilead Sciences, Inc., priority 2013, dated 2017) come the findings set out here.

Assay type in all cases: biochemical
One experiment concerns the target T1, KDM6B (JMJD3) (Homo sapiens, UniProt O15054).
T1 construct: 1043-end; purchased BPS; host or cells: Bac (baculovirus system)
Description: Histone lysine demethylase AlphaLISA assay, KDM6B. Conditions: read-out: KDM6B HDME Inhibition IC50. In short, it runs like this: (§1)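 AlphaLISA demethylation readout: enzyme preincubated 10 min, then 10 min with compounds in 3% DMSO buffer, before biotinylated methyl-lysine histone peptide substrate with 25 μM L-Asc and 10 μM α-KG, room temperature. Acceptor beads then streptavidin donor beads added, dark incubation, plates read.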

Another experiment has as its target T2, KDM4A (JMJD2A) (Homo sapiens, UniProt O75164).
T2 construct: 1-350; purchased BPS Bioscience, US; host or cells: E. coli
T2 sequence (O75164 1-350): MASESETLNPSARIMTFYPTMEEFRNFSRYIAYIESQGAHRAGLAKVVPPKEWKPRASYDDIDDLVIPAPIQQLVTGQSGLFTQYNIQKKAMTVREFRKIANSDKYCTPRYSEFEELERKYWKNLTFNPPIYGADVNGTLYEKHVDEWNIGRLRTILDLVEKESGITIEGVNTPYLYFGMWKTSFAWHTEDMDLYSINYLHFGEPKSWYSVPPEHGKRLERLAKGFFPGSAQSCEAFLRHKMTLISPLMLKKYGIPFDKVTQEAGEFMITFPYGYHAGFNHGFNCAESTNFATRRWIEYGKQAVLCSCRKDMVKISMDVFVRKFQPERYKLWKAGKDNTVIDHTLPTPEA
Description: Histone lysine demethylase AlphaLISA assay, KDM4A. Particulars: read-out: KDM4A HDME Inhibition IC50. The method, boiled down:
as §1

A further experiment concerns the target T3, KDM7 (PHF8) (Homo sapiens, UniProt Q9UPP1).
T3 construct: KDM7 (PHF8); BRIC; 1-1322; Bac
Description: Histone lysine demethylase AlphaLISA assay, KDM7. Particulars: read-out: PHF8 HDME Inhibition IC50. In short, it runs like this:
as §1

A further experiment addresses T4, KDM5B (PLU-1) (Homo sapiens, UniProt Q9UGL1).
T4 sequence (Q9UGL1 1-809): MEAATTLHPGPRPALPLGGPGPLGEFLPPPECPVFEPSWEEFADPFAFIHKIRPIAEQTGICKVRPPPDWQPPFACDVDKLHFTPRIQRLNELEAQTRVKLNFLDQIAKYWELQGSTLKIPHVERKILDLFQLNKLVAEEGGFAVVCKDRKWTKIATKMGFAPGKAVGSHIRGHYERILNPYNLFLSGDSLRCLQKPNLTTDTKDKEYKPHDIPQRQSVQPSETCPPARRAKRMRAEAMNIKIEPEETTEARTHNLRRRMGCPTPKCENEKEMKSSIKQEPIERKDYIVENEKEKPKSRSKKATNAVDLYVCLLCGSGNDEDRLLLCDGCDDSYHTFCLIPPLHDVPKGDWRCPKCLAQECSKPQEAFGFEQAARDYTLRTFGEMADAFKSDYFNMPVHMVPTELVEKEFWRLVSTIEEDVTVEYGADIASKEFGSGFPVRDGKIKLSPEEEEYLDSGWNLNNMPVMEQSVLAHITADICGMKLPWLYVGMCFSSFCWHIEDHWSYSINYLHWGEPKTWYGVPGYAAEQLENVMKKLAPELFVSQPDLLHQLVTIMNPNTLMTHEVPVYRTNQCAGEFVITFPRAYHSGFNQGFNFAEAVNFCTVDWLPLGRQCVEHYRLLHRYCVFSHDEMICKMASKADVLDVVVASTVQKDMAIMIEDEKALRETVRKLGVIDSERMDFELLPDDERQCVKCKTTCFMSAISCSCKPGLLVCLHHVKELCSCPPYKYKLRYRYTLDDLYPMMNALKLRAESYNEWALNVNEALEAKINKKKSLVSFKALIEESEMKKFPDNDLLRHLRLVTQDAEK
The experiment can be described thus: Histone lysine demethylase AlphaLISA assay, KDM5B. Conditions: read-out: KDM5B HDME Inhibition IC50. In short, it runs like this: as §1

The next experiment has as its target T5, KDM5C (JARID1C) (Homo sapiens, UniProt P41229).
T5 construct: 2-1560; purchased BPS; host or cells: Bac (baculovirus system)
Description: Histone lysine demethylase AlphaLISA assay, KDM5C. Conditions: read-out: KDM5C HDME Inhibition IC50. In short, it runs like this:
as §1

In a further experiment the target is T6, KDM4C (JMJD2C) (Homo sapiens, UniProt Q9H3R0).
T6 sequence (Q9H3R0 1-349): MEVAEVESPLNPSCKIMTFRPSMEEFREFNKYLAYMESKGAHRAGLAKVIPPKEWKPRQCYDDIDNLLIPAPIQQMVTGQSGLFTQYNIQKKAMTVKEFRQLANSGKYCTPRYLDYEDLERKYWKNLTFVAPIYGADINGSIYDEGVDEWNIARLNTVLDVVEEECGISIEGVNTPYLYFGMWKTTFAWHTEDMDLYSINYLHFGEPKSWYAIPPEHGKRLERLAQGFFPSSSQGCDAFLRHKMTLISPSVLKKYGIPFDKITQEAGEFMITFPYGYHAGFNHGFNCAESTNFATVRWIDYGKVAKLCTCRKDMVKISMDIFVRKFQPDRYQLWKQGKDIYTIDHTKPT
Description: Histone lysine demethylase AlphaLISA assay, KDM4C. Particulars: read-out: KDM4C HDME Inhibition IC50. The method, boiled down: as §1

T5 sequence (P41229 2-1560): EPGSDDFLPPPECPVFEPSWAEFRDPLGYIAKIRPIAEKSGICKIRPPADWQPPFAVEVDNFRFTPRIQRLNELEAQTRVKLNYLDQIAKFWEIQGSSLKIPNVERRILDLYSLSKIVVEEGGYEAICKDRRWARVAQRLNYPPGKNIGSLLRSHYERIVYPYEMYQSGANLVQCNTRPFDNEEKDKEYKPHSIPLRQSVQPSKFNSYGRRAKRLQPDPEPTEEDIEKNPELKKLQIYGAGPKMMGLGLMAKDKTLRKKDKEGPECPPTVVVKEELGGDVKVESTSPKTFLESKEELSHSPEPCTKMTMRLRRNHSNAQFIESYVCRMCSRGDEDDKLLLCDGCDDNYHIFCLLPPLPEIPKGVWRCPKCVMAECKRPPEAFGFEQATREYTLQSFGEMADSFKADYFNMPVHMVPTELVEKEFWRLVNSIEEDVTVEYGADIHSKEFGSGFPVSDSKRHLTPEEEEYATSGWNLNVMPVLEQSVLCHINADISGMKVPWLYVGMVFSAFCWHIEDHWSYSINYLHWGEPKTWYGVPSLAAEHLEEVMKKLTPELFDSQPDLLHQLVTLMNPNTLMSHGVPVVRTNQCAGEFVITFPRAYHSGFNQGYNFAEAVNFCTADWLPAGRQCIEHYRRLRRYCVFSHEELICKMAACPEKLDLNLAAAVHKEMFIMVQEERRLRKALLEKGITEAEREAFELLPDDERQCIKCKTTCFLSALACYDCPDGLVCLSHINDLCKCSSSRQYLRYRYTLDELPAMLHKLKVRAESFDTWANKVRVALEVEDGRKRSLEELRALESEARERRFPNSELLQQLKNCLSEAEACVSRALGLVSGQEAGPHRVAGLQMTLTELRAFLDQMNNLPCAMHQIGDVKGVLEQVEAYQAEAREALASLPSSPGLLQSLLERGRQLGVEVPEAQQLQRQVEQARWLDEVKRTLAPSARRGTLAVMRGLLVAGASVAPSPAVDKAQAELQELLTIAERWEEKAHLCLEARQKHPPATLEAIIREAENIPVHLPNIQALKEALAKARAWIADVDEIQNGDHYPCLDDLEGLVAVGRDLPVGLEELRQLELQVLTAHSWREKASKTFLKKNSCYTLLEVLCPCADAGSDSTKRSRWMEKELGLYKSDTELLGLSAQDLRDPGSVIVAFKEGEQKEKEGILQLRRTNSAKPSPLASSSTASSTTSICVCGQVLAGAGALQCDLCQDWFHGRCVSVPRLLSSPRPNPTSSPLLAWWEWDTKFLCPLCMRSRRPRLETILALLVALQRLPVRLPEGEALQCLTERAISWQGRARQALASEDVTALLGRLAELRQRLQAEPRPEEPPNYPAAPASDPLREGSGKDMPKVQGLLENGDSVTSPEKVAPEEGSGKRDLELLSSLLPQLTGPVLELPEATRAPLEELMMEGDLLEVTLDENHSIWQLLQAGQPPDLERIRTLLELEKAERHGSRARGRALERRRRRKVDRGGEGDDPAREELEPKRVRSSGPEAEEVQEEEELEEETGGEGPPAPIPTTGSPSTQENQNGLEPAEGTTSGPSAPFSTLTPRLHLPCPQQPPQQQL
T3 sequence (Q9UPP1 37-440 limits assumed): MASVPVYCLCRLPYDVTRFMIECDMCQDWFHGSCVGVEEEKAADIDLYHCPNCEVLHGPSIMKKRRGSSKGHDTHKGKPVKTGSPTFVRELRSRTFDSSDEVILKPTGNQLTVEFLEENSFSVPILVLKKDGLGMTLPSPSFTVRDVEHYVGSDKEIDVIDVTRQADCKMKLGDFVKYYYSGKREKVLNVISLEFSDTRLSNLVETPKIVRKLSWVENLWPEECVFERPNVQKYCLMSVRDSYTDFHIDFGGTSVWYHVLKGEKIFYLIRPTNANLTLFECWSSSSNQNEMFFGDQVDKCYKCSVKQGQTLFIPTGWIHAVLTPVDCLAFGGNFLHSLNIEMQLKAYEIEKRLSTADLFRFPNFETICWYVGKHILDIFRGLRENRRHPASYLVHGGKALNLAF
T1 sequence (O15054 1043-1682 isoform O15054-1 limits assumed): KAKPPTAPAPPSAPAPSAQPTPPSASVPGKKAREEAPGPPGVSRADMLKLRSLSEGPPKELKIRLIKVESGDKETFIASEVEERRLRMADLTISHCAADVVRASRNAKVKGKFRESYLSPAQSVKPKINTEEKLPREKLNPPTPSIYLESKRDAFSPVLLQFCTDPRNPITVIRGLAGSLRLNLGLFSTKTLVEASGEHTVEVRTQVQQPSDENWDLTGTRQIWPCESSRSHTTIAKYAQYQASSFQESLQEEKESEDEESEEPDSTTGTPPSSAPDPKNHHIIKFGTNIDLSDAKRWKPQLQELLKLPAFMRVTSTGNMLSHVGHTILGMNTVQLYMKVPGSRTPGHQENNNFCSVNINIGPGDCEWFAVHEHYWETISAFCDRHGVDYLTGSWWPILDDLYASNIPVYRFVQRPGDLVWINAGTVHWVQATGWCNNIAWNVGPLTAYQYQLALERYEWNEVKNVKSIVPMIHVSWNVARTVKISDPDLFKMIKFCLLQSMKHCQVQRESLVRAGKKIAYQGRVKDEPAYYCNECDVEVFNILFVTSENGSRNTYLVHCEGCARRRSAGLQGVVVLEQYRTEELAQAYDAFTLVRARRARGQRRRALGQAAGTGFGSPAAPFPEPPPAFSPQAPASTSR

With `CN(C)CCCNCc1cc(CN)ccn1` [Compound 3, [2-({[3-(dimethylamino)propyl]-amino}methyl)pyridin-4-yl]methanamine], the IC50 on KDM6B (JMJD3) is greater than 2500 nM; at KDM4A (JMJD2A), less than 250 nM; at KDM7 (PHF8), 250 to 2500 nM; at KDM5B (PLU-1), 250 to 2500 nM; at KDM5C (JARID1C) it was less than 250 nM; at KDM4C (JMJD2C) it was greater than 2500 nM.

For the compound `CCN(CC)CCCCN(Cc1cc(CNC(=O)C(F)(F)F)ccn1)C(=O)C(F)(F)F` [Compound 6, N-[4-(diethylamino)butyl]-- 2,2,2-trifluoro-N-({4-[(trifluoroacetamido)-methyl]pyridin-2-yl}methyl)acetamide], the IC50 is greater than 2500 nM at KDM6B (JMJD3); 250 to 2500 nM at KDM4A (JMJD2A); 250 to 2500 nM on KDM7 (PHF8); greater than 2500 nM on KDM5B (PLU-1); greater than 2500 nM at KDM5C (JARID1C); greater than 2500 nM on KDM4C (JMJD2C).

In the case of `CN(C)CCNCc1cc(CNC(C#N)C2CC2)ccn1` (stereo not drawn) [Compound 21, 2-cyclopropyl-2-({[2-({[2-(dimethylamino)ethyl]-amino}methyl)pyridin-4-yl]methyl}amino)-acetonitrile], the IC50 at KDM6B (JMJD3), at KDM4A (JMJD2A), on KDM7 (PHF8), at KDM5B (PLU-1), at KDM5C (JARID1C) and on KDM4C (JMJD2C) was greater than 2500 nM each time.

Regarding `CN(C)C(=O)CNCc1cc(CNCCF)ccn1` [Compound 14, 2-{[(4-{[(2-fluoroethyl)amino]-methyl}pyridin-2-yl)methyl]amino}-N,N-dimethylacetamide], the IC50 at KDM6B (JMJD3) was greater than 2500 nM; at KDM4A (JMJD2A), greater than 2500 nM; at KDM7 (PHF8) it was greater than 2500 nM; on KDM5B (PLU-1), 250 to 2500 nM; at KDM5C (JARID1C), 250 to 2500 nM; at KDM4C (JMJD2C) it was 250 to 2500 nM.

For `CN(C)C(=O)CNCc1cc(CNCC#N)ccn1` [Compound 13, 2-{[(4-{[(cyanomethyl)amino]-methyl}pyridin-2-yl)methyl]amino}-N,N-dimethylacetamide], the IC50 at KDM6B (JMJD3) is greater than 2500 nM; on KDM4A (JMJD2A), greater than 2500 nM; at KDM7 (PHF8), greater than 2500 nM; on KDM5B (PLU-1), 250 to 2500 nM; at KDM5C (JARID1C), greater than 2500 nM; on KDM4C (JMJD2C) it was greater than 2500 nM.

As to `CN1CCN(C(=O)CNCc2cc(/C=N/C3CC3)ccn2)CC1` [Compound 54, 2-[({4-[N-cyclopropyl-carboximidoyl]-pyridin-2-yl}methyl)amino]-1-(4-methylpiperazin-1-yl)ethan-1-one], the IC50 on KDM6B (JMJD3) was greater than 2500 nM; on KDM4A (JMJD2A), 250 to 2500 nM; at KDM7 (PHF8), greater than 2500 nM; at KDM5B (PLU-1), less than 250 nM; on KDM5C (JARID1C), less than 250 nM; at KDM4C (JMJD2C) it was 250 to 2500 nM.

As for `CCN(CC)CCCCNCc1cc(C=O)ccn1` [Compound 107, 2-({[4-(diethylamino)-butyl]amino}-methyl)pyridine-4-carbaldehyde], the IC50 was greater than 2500 nM at KDM6B (JMJD3); greater than 2500 nM at KDM4A (JMJD2A); greater than 2500 nM on KDM7 (PHF8); less than 250 nM at KDM5B (PLU-1); less than 250 nM on KDM5C (JARID1C); greater than 2500 nM on KDM4C (JMJD2C).

With `CCN(CC)CCCCNCc1cc(/C=N/CC(F)(F)C(F)(F)F)ccn1` [Compound 62, {[2-({[4-(diethylamino)-butyl]amino}methyl)pyridin-4-yl]methylidene} (2,2,3,3,3-pentafluoropropyl)-amine], the IC50 is greater than 2500 nM on KDM6B (JMJD3); greater than 2500 nM at KDM4A (JMJD2A); greater than 2500 nM at KDM7 (PHF8); less than 250 nM at KDM5B (PLU-1); less than 250 nM on KDM5C (JARID1C); greater than 2500 nM on KDM4C (JMJD2C).

Take `CCN1CCCC1CNC(=O)CNCc1cc(/C=N/C2CC2)ccn1` (stereo not drawn) [Compound 51, 2-[({4-[N-cyclopropyl-carboximidoyl]-pyridin-2-yl}methyl)-amino]-N-[(1-ethylpyrrolidin-2-yl)methyl]acetamide]: the IC50 on KDM6B (JMJD3) is greater than 2500 nM; on KDM4A (JMJD2A) it was 250 to 2500 nM; at KDM7 (PHF8) it was 250 to 2500 nM; at KDM5B (PLU-1) it was less than 250 nM; on KDM5C (JARID1C), less than 250 nM; at KDM4C (JMJD2C) it was greater than 2500 nM.

For `CCN(CCN(C)C)C(=O)CNCc1cc(/C=N/CCC2CCCCC2)ccn1` [Compound 63, 2-[({4-[[(2-cydohexylethyl)-imino]methyl]pyridin-2-yl}methyl)amino]-N-[2-(dimethylamino)-ethyl]-N-ethylacetamide], the IC50 at KDM6B (JMJD3) was greater than 2500 nM; at KDM4A (JMJD2A) it was greater than 2500 nM; at KDM7 (PHF8), greater than 2500 nM; at KDM5B (PLU-1), less than 250 nM; at KDM5C (JARID1C), less than 250 nM; on KDM4C (JMJD2C), less than 250 nM.

For the compound `O=C(CNCc1cc(/C=N/C2CC2)ccn1)N1CCC[C@@H]1CN1CCCC1` [Compound 49, 2-[({4-[N-cyclopropyl-carboximidoyl]pyridin-2-yl}methyl)amino]-1-[(2R)-2-(pyrrolidin-1-ylmethyl)pyrrolidin-1-yl]ethan-1-one], the IC50 on KDM6B (JMJD3) was greater than 2500 nM; on KDM4A (JMJD2A) it was less than 250 nM; on KDM7 (PHF8) it was 250 to 2500 nM; on KDM5B (PLU-1) it was less than 250 nM; at KDM5C (JARID1C), less than 250 nM; on KDM4C (JMJD2C), 250 to 2500 nM.

On to `CC(C#N)NCc1ccnc(CNCCCN(C)C)c1` (stereo not drawn) [Compound 22, 2-({[2-({[3-(dimethylamino)propyl]-amino}methyl)pyridin-4-yl]methyl}amino)-propanenitrile], for which the IC50 at KDM6B (JMJD3) is greater than 2500 nM; on KDM4A (JMJD2A), greater than 2500 nM; at KDM7 (PHF8), greater than 2500 nM; on KDM5B (PLU-1) it was 250 to 2500 nM; on KDM5C (JARID1C), less than 250 nM; on KDM4C (JMJD2C) it was greater than 2500 nM.

For the compound `CN(C)C(=O)CNCc1cc(/C=N/CCCc2ccccc2)ccn1` [Compound 34, N,N-dimethyl-2-[({4-[[(3-phenylpropyl)imino]-methyl]pyridin-2-yl}methyl)amino]-acetamide], the IC50 on KDM6B (JMJD3) was greater than 2500 nM; at KDM4A (JMJD2A) it was greater than 2500 nM; on KDM7 (PHF8), greater than 2500 nM; on KDM5B (PLU-1), less than 250 nM; at KDM5C (JARID1C), less than 250 nM; on KDM4C (JMJD2C), 250 to 2500 nM.

Regarding `c1ccc(CN2CCC[C@H]2CNCc2cc(CNCC3CC3)ccn2)cc1` [Compound 16, {[(2S)-1-benzylpyrrolidin-2-yl]methyl}[(4-{[(cyclopropylmethyl)-amino]methyl}pyridin-2-yl)methyl]amine], the IC50 on KDM6B (JMJD3) was greater than 2500 nM; at KDM4A (JMJD2A) it was greater than 2500 nM; at KDM7 (PHF8), 250 to 2500 nM; at KDM5B (PLU-1) it was 250 to 2500 nM; on KDM5C (JARID1C), 250 to 2500 nM; at KDM4C (JMJD2C) it was greater than 2500 nM.

Turning to `CN(C)CCNCc1cc(C=O)ccn1` [Compound 110, 2-({[2-(dimethylamino)-ethyl]amino}methyl)-pyridine-4-carbaldehyde], the IC50 at KDM6B (JMJD3) is greater than 2500 nM; on KDM4A (JMJD2A) it was 250 to 2500 nM; at KDM7 (PHF8), greater than 2500 nM; on KDM5B (PLU-1) it was 250 to 2500 nM; at KDM5C (JARID1C), less than 250 nM; at KDM4C (JMJD2C), greater than 2500 nM.
